Test systems include NCI/ADR-RES; HCC 2998; UACC-62; SF-539; A549; SNB-75; OVCAR-8; Malme-3M; HOP-92; HCT-116; HT-29; SK-MEL-28; SN12C; SNB-78; EKVX; OVCAR-5; RPMI-8226; UACC-257; A498; ACHN.
Assay in all cases: NCI anticancer screen, dose series, 48 h

Molecules are shown by their SMILES.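 These data come from cells grown in 96-well plates and exposed to compound for 48 hours at five concentrations. At the GI50, growth is halved.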 Calls of active or inactive are those of the source. Cut-off read from the data, not from the text of the source: active = GI50 up to about 1.1 µM and inactive = higher.

With `O=c1ccn([C@@H]2C=C(CO)[C@@H](O)[C@H]2O)c(=O)[nH]1`, the GI50 was > 625 µM (inactive) in the test on NCI/ADR-RES; > 625 µM (inactive) in the test with HCC 2998; > 625 µM (inactive) with UACC-62; > 625 µM (inactive) in the test with SF-539; > 625 µM (inactive) with A549; 90.4 µM (inactive) in the test on SNB-75. For the same compound, the GI50 with OVCAR-8, in the test with Malme-3M, in the test with HOP-92, in the test on HCT-116, in the test with HT-29 and in the test with SK-MEL-28 was > 625 µM (inactive) in each case. Also, in the test with SN12C, the GI50 is > 625 µM (inactive).

As to `COc1ccc(C2COc3cc(OC(C)=O)c(OC(C)=O)cc3C2)cc1` (stereo unspecified), the GI50 with NCI/ADR-RES was 36.3 µM (inactive); in the test with HCC 2998, 23.2 µM (inactive); in the test with UACC-62 it was 19 µM (inactive); in the test on SNB-78 it was 26.1 µM (inactive); in the test on SF-539, 19.9 µM (inactive); in the test on A549, 11.9 µM (inactive). The GI50 in the test on EKVX is 27.2 µM (inactive); in the test on SNB-75, 7.76 µM (inactive); with OVCAR-5, 27.1 µM (inactive); in the test on OVCAR-8 it was 18.8 µM (inactive); in the test with Malme-3M, 23.2 µM (inactive); with RPMI-8226 it was 5.97 µM (inactive). Besides, the GI50 is 23.6 µM (inactive) in the test on UACC-257; 9.08 µM (inactive) with HOP-92; 20.4 µM (inactive) in the test with HCT-116; 28.2 µM (inactive) in the test on HT-29; 23.8 µM (inactive) in the test with SK-MEL-28; 17.5 µM (inactive) in the test with SN12C. The GI50 in the test with A498 was 4.54 µM (inactive).

As for `CCCN1C(=O)/C(=C(/O)C(=O)OCC)C(c2ccc(OC)c(OC)c2)C1=O` (stereo unspecified), the GI50 in the test on NCI/ADR-RES, in the test with HCC 2998, in the test with UACC-62, in the test on SNB-78, in the test with SF-539 and with A549 was > 100 µM (inactive) throughout. For the same compound, the GI50 in the test with EKVX is > 100 µM (inactive); in the test on SNB-75 it was > 100 µM (inactive); with OVCAR-5, > 100 µM (inactive); with OVCAR-8, > 100 µM (inactive); with Malme-3M, > 100 µM (inactive); in the test on RPMI-8226 it was > 93.8 µM (inactive). Also, the GI50 with UACC-257, with HOP-92, in the test with HCT-116, in the test with HT-29, in the test on SK-MEL-28 and with SN12C was > 100 µM (inactive) throughout. Further, the GI50 with A498 is > 100 µM (inactive).

Take `COc1ccc(/C=c2\sc3n(c2=O)CCN=3)cc1`: the GI50 in the test with HCC 2998 is 62.4 µM (inactive); in the test on UACC-62 it was > 100 µM (inactive); with SNB-78, > 100 µM (inactive); in the test with SF-539 it was > 100 µM (inactive); in the test with A549, > 100 µM (inactive); in the test with EKVX it was > 100 µM (inactive). The GI50 in the test with SNB-75 is 57.8 µM (inactive); in the test on OVCAR-5, > 100 µM (inactive); in the test on ACHN, > 100 µM (inactive); with OVCAR-8, > 100 µM (inactive); with Malme-3M it was 39.1 µM (inactive); in the test on UACC-257, 47.5 µM (inactive). For the same compound, the GI50 in the test with HOP-92 is 29.8 µM (inactive); with HCT-116, > 100 µM (inactive); in the test on HT-29 it was > 100 µM (inactive); in the test on SK-MEL-28, > 100 µM (inactive); with SN12C, 75.7 µM (inactive).

Consider `CCOC(=O)CN(CC)C(=O)NC12CC3CC(CC(C3)C1)C2`, for which the GI50 in the test with NCI/ADR-RES is 196 µM (inactive); in the test with HCC 2998 it was 222 µM (inactive); in the test with UACC-62 it was 116 µM (inactive); in the test with SNB-78, 240 µM (inactive); in the test on SF-539 it was 244 µM (inactive); in the test with A549, 222 µM (inactive). Moreover, the GI50 was 207 µM (inactive) with EKVX; 92.9 µM (inactive) in the test with SNB-75; 225 µM (inactive) with OVCAR-5; 292 µM (inactive) with OVCAR-8; 152 µM (inactive) in the test on Malme-3M; 141 µM (inactive) in the test on RPMI-8226. Also, the GI50 was 144 µM (inactive) in the test with UACC-257; 67 µM (inactive) in the test with HOP-92; 189 µM (inactive) in the test on HCT-116; 166 µM (inactive) in the test on HT-29; 269 µM (inactive) in the test on SK-MEL-28; 288 µM (inactive) in the test on SN12C. In the test on A498, the GI50 is 136 µM (inactive).

As for `CN1COCN/C1=N/C#N`, the GI50 in the test on HCC 2998, in the test with UACC-62, in the test with SNB-78, in the test on SF-539, with A549 and in the test on EKVX was > 100 µM (inactive) each time. Further, the GI50 was > 100 µM (inactive) in the test with SNB-75; > 100 µM (inactive) in the test with OVCAR-5; > 100 µM (inactive) in the test with ACHN; > 10 µM (inactive) with OVCAR-8; > 100 µM (inactive) with Malme-3M; > 100 µM (inactive) in the test on RPMI-8226. Besides, the GI50 in the test with UACC-257, with HCT-116, in the test with HT-29, with SK-MEL-28, in the test on SN12C and in the test with A498 was > 100 µM (inactive) each time.

As for `COc1ccccc1OCC(COC(=O)Nc1ccccc1)OC(=O)Nc1ccccc1` (stereo unspecified), the GI50 in the test with HCC 2998 was > 100 µM (inactive); with UACC-62 it was 32.6 µM (inactive); in the test on SNB-78 it was 43.3 µM (inactive); with SF-539, 17.2 µM (inactive); in the test with A549 it was 50.6 µM (inactive); in the test with EKVX, > 100 µM (inactive). The GI50 in the test with SNB-75 was 17.1 µM (inactive); with OVCAR-5, > 100 µM (inactive); in the test with ACHN, > 100 µM (inactive); in the test on OVCAR-8 it was 37.4 µM (inactive); with Malme-3M, 60.8 µM (inactive); in the test on UACC-257, > 100 µM (inactive). Also, the GI50 with HOP-92 was 6.25 µM (inactive); in the test on HCT-116 it was 61.1 µM (inactive); in the test on HT-29, 59.8 µM (inactive); with SK-MEL-28, > 100 µM (inactive); in the test on SN12C, 28.5 µM (inactive); with A498, 60.3 µM (inactive).

As to `CCOC(=O)c1ccc(N(CCOS(C)(=O)=O)CCOS(C)(=O)=O)cc1`, the GI50 with NCI/ADR-RES is 35.7 µM (inactive); with HCC 2998, 60.3 µM (inactive); with UACC-62 it was 27.8 µM (inactive); in the test with SF-539 it was 25.1 µM (inactive); in the test with A549, 53 µM (inactive); with EKVX, 58.3 µM (inactive). Moreover, the GI50 in the test on OVCAR-5 is 34.9 µM (inactive); with ACHN, 26 µM (inactive); in the test on OVCAR-8, 47 µM (inactive); in the test with Malme-3M, 38.8 µM (inactive); in the test on RPMI-8226 it was 25.1 µM (inactive); with UACC-257 it was > 100 µM (inactive). For the same compound, the GI50 with HOP-92 was 37.6 µM (inactive); in the test on HCT-116, 30.1 µM (inactive); in the test on HT-29, 51.6 µM (inactive); in the test on SK-MEL-28, > 100 µM (inactive); with A498 it was 35.2 µM (inactive).

In the case of `C/C=C1\C[C@@H]2C(OC)Nc3cc(O)c(OC)cc3C(=O)N2C1` (stereo partly specified), the GI50 in the test on NCI/ADR-RES was < 0.01 µM (active); with HCC 2998, 0.0158 µM (active); in the test with UACC-62, < 0.01 µM (active); in the test with SF-539, < 0.01 µM (active); in the test on A549 it was < 0.01 µM (active); with EKVX it was < 0.0103 µM (active). Also, the GI50 in the test on SNB-75 was < 0.01 µM (active); in the test on OVCAR-5, < 0.01 µM (active); with ACHN it was 0.00179 µM (active); in the test on OVCAR-8, < 0.01 µM (active); in the test on Malme-3M it was < 0.01 µM (active); with RPMI-8226, < 0.01 µM (active). The GI50 with UACC-257 is < 0.01 µM (active); in the test with HOP-92 it was < 0.01 µM (active); with HCT-116 it was < 0.01 µM (active); with HT-29, < 0.01 µM (active); in the test with SK-MEL-28, < 0.0107 µM (active); with SN12C, < 0.01 µM (active). Also, the GI50 in the test with A498 was 0.0273 µM (active).

Turning to `C[C@H]1O[C@@H](O[C@H]2[C@@H](O)C[C@H](O[C@H]3[C@@H](O)C[C@H](O[C@H]4CC[C@@]5(C)[C@H](CC[C@@H]6[C@@H]5CC[C@]5(C)[C@@H](C7=CC(=O)OC7)CC[C@]65O)C4)O[C@@H]3C)O[C@@H]2C)C[C@H](O)[C@@H]1O` [DIGITOXIN], the GI50 in the test on NCI/ADR-RES was 0.0283 µM (active); in the test on HCC 2998, 0.171 µM (active); in the test on UACC-62 it was 0.0579 µM (active); in the test on SF-539, < 0.0123 µM (active); in the test with A549, < 0.0157 µM (active); in the test with EKVX, 0.0286 µM (active). Moreover, the GI50 in the test with SNB-75 is 0.0676 µM (active); in the test on OVCAR-5 it was 0.0543 µM (active); in the test with ACHN, < 0.015 µM (active); with Malme-3M, 0.028 µM (active); with RPMI-8226 it was 0.0292 µM (active); in the test with UACC-257, 0.0582 µM (active). The GI50 with HOP-92 was 0.0422 µM (active); in the test on HCT-116, 0.0165 µM (active); with HT-29, 0.0338 µM (active); in the test with SK-MEL-28 it was 0.092 µM (active); in the test with SN12C, < 0.01 µM (active).
